Among the data in US11034718B2, “C-3 novel triterpenone with C-17 reverse amide derivatives as HIV inhibitors” (HETERO LABS LIMITED, priority 2015, dated 2021) are IC50 values, retold here.

Structures are written as SMILES. Where a name gives a salt, the structure may show the parent alone. Read-outs that look alike come from different tables or passages of the source. Bounds are passed on as bounds.

The term IC50 denotes the concentration that inhibits the measured activity by half.

The test has as its system HIV-1 strain 92HT599. The test is described as follows: Antiviral activity against HIV-1 strain 92HT599 in MT2 cells (p24 estimation). The class given is cell-based. To be noted: HIV-1 92HT599, ~96 hours. The protocol: Example 77: Evaluation of Compounds Antiviral Activity Against HIV-1 Strain 92HT599 in MT2 Cells
MT2 cells were infected with HIV-1 strain 92HT599 (10 TCID 50/30000 cells). The infected cells were plated at the concentration of 30,000 cells per well in 96 well plate. Test compound was added to the micro plate in defined format with the final concentration of DMSO (vehicle) is not more than 1%. Incubation was carried out in CO2 incubator for ˜96 hours for viral infection. At the end of incubation period an aliquot from each well was taken for p24 estimation. The quantitation of p24 is an index for antiviral activity of the compound. Percent inhibition was calculated with reference to control values (vehicle controls). p24 estimation was carried out using Advance biosciences kit as per the procedure detailed by supplier.

Where [1] appears, read: Human immunodeficiency virus 1, 0% serum binding assay, read-out: IC50 0% serum.
Where [2] appears, read: Human immunodeficiency virus 1, 40% serum binding assay, read-out: IC50 40% serum.

As to `CC(C)C1=C2[C@H]3CC[C@@H]4[C@@]5(C)CC[C@H](OC(=O)[C@H]6C[C@@H](C(=O)O)C6(C)C)C(C)(C)[C@@H]5CC[C@@]4(C)[C@]3(C)CC[C@@]2(NC(=O)C(C)(C)NC(=O)C2(c3ccc(Cl)cc3)CC2)CC1=O` [Example 2, (1R,3S)-3-((((3aR,5aR,5bR,7aR,9S,11aR,11bR,13aS)-3a-(2-(1-(4-chlorophenyl)cyclopropane-1-carboxamido)-2-methylpropanamido)-1-isopropyl-5a,5b,8,8,11a-pentamethyl-2-oxo-3,3a,4,5,5a,5b,6,7,7a,8,9,10,11,11a,11b,12,13,13a-octadecahydro-2H-cyclopenta[a]chrysen-9-yl)oxy)carbonyl)-2,2-dimethylcyclobutane-1-carboxylic acid], the IC50 is 3.01 to 10 nM under setting [1] and under 50 nM under setting [2].
The like results for `CC(C)C1=C2[C@H]3CC[C@@H]4[C@@]5(C)CC[C@H](OC(=O)[C@H]6C[C@@H](C(=O)O)C6(C)C)C(C)(C)[C@@H]5CC[C@@]4(C)[C@]3(C)CC[C@@]2(NC(=O)C(C)(C)NC(=O)c2ccccc2)CC1=O` [Example 3, (1R,3S)-3-((((3aR,5aR,5bR,7aR,9S,11aR,11bR,13aS)-3a-(2-benzamido-2-methylpropanamido)-1-isopropyl-5a,5b,8,8,11a-pentamethyl-2-oxo-3,3a,4,5,5a, 5b,6,7,7a,8,9,10,11,11a,11b,12,13,13a-octadecahydro-2H-cyclopenta[a]chrysen-9-yl)oxy)carbonyl)-2,2-dimethylcyclobutane-1-carboxylic acid] were, in that order, under 3 nM and under 50 nM.
For `CC(C)C1=C2[C@H]3CC[C@@H]4[C@@]5(C)CC[C@H](OC(=O)[C@H]6C[C@@H](C(=O)O)C6(C)C)C(C)(C)[C@@H]5CC[C@@]4(C)[C@]3(C)CC[C@@]2(NC(=O)C(C)(C)NC(=O)c2ccc(Cl)c(Cl)c2)CC1=O` [Example 4, (1R,3S)-3-((((3aR,5aR,5bR,7aR,9S,11aR,11bR,13aS)-3a-(2-(3,4-dichlorobenzamido)-2-methylpropanamido)-1-isopropyl-5a,5b,8,8,11a-pentamethyl-2-oxo-3,3a,4,5,5a,5b,6,7,7a,8,9,10,11,11a,11b,12,13,13a-octadecahydro-2H-cyclopenta[a]chrysen-9-yl)oxy)carbonyl)-2,2-dimethylcyclobutane-1-carboxylic acid] the same measures were under 3 nM and under 50 nM.
For `CC(C)C1=C2[C@H]3CC[C@@H]4[C@@]5(C)CC[C@H](OC(=O)[C@H]6C[C@@H](C(=O)O)C6(C)C)C(C)(C)[C@@H]5CC[C@@]4(C)[C@]3(C)CC[C@@]2(NC(=O)C(C)(C)NC(=O)c2ccc(N)nc2)CC1=O` [Example 6, (1R,3S)-3-((((3aR,5aR,5bR,7aR,9S,11aR,11bR,13aS)-3a-(2-(6-aminonicotinamido)-2-methylpropanamido)-1-isopropyl-5a,5b,8,8,11a-pentamethyl-2-oxo-3,3a,4,5,5a,5b,6,7,7a,8,9,10,11,11a,11b,12,13,13a-octadecahydro-2H-cyclopenta[a]chrysen-9-yl)oxy)carbonyl)-2,2-dimethylcyclobutane-1-carboxylic acid] the same measures were under 3 nM and 50 to 200 nM.
As to `CC(C)C1=C2[C@H]3CC[C@@H]4[C@@]5(C)CC[C@H](OC(=O)[C@H]6C[C@@H](C(=O)O)C6(C)C)C(C)(C)[C@@H]5CC[C@@]4(C)[C@]3(C)CC[C@@]2(NC(=O)C(C)(C)NC(=O)[C@@H]2CCCN2C(=O)OC(C)(C)C)CC1=O` [Example 8], the IC50 by setting is: under setting [1], under 3 nM; under setting [2], under 50 nM.
For `CCN1CCN(CC(=O)NC(C)(C)C(=O)N[C@@]23CC[C@]4(C)[C@H](CC[C@@H]5[C@@]6(C)CC[C@H](OC(=O)[C@H]7C[C@@H](C(=O)O)C7(C)C)C(C)(C)[C@@H]6CC[C@]54C)C2=C(C(C)C)C(=O)C3)CC1` [Example 9, (1R,3S)-3-((((3aR,5aR,5bR,7aR,9S,11aR,11bR,13aS)-3a-(2-(2-(4-ethylpiperazin-1-yl)acetamido)-2-methylpropanamido)-1-isopropyl-5a,5b,8,8,11a-pentamethyl-2-oxo-3,3a,4,5,5a,5b,6,7,7a,8,9,10,11,11a,11b,12,13,13a-octadecahydro-2H-cyclopenta[a]chrysen-9-yl)oxy)carbonyl)-2,2-dimethylcyclobutane-1-carboxylic acid] the same measures were under 3 nM and over 200 nM.
For `CC(C)C1=C2[C@H]3CC[C@@H]4[C@@]5(C)CC[C@H](OC(=O)[C@H]6C[C@@H](C(=O)O)C6(C)C)C(C)(C)[C@@H]5CC[C@@]4(C)[C@]3(C)CC[C@@]2(NC(=O)C(C)(C)NC(=O)CN2CCCCC2)CC1=O` [Example 10, (1R,3S)-3-((((3aR,5aR,5bR,7aR,9S,11aR,11bR,13aS)-1-isopropyl-5a,5b,8,8,11a-pentamethyl-3a-(2-methyl-2-(2-(piperidin-1-yl)acetamido)propan amido)-2-oxo-3,3a,4,5,5a,5b,6,7,7a,8,9,10,11,11a,11b,12,13,13a-octadecahydro-2H-cyclopenta[a]chrysen-9-yl)oxy)carbonyl)-2,2-dimethylcyclobutane-1-carboxylic acid] the same measures were under 3 nM and under 50 nM.
For `CC(C)C1=C2[C@H]3CC[C@@H]4[C@@]5(C)CC[C@H](OC(=O)[C@H]6C[C@@H](C(=O)O)C6(C)C)C(C)(C)[C@@H]5CC[C@@]4(C)[C@]3(C)CC[C@@]2(NC(=O)C(C)(C)NC(=O)C(C)(C)N)CC1=O` [Example 11, (1R,3S)-3-((((3aR,5aR,5bR,7aR,9S,11aR,11bR,13aS)-3a-(2-(2-amino-2-methylpropanamido)-2-methylpropanamido)-1-isopropyl-5a,5b,8,8,11a-pentamethyl-2-oxo-3,3a,4,5,5a,5b,6,7,7a,8,9,10,11,11a,11b,12,13,13a-octadecahydro-2H-cyclopenta[a]chrysen-9-yl)oxy)carbonyl)-2,2-dimethylcyclobutane-1-carboxylic acid hydrochloride] the same measures were under 3 nM and 50 to 200 nM.
As to `CC(C)C1=C2[C@H]3CC[C@@H]4[C@@]5(C)CC[C@H](OC(=O)[C@H]6C[C@@H](C(=O)O)C6(C)C)C(C)(C)[C@@H]5CC[C@@]4(C)[C@]3(C)CC[C@@]2(NC(=O)C(C)(C)NC(=O)c2ccc3[nH]cnc3c2)CC1=O` [Example 12, (1R,3S)-3-((((3aR,5aR,5bR,7aR,9S,11aR,11bR,13aS)-3a-(2-(1H-benzo[d]imidazole-5-carboxamido)-2-methylpropanamido)-1-isopropyl-5a,5b,8,8,11a-pentamethyl-2-oxo-3,3a,4,5,5a,5b,6,7,7a,8,9,10,11,11a,11b,12,13,13a-octadecahydro-2H-cyclopenta[a]chrysen-9-yl)oxy)carbonyl)-2,2-dimethylcyclobutane-1-carboxylic acid], the concentration for half-maximal inhibition (IC50) was under 3 nM under setting [1] and 50 to 200 nM under setting [2].
